For this assay, the target named is T1, human MPO (Homo sapiens, UniProt P05164).
T1 sequence (P05164 49-745): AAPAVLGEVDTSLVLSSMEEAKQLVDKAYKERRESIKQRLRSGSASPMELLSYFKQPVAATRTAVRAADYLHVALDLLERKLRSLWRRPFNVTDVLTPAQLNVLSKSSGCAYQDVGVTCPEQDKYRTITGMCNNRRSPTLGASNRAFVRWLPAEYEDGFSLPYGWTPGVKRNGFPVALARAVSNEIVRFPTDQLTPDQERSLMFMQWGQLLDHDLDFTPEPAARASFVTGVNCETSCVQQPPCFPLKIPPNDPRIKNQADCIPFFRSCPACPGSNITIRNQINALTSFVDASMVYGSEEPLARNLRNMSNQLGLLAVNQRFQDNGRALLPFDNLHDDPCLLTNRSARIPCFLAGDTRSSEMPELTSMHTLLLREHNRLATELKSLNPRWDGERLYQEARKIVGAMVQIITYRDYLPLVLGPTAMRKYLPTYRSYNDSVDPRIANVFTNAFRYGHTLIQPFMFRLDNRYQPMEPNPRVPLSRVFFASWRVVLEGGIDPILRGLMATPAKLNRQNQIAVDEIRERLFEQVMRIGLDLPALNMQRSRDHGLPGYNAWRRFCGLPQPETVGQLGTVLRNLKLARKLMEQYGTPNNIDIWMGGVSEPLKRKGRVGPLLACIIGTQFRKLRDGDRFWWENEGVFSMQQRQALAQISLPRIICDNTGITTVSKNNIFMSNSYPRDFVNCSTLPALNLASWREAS
In words: MPO inhibitory activity screen (TMB oxidation, absorbance). Format: biochemical. Particulars: human MPO 2.5 nM, H2O2 100 μM, buffer pH 6.5, absorbance at about 650 nM. How it is done: Methods for the determination of MPO inhibitory activity are disclosed in co-pending patent application WO 02/090575. The pharmacological activity of compounds according to the invention was tested in the following screen:
Assay buffer: 20 mM sodium/potassium phosphate buffer pH 6.5 containing 10 mM taurine and 100 mM NaCl.
Developing reagent: 2 mM 3,3′,5,5′-tetramethylbenzidine (TMB), 200 μM KI, 200 mM acetate buffer pH 5.4 with 20% DMF.
To 10 μl of diluted compounds in assay buffer, 40 μl of human MPO (final concentration 2.5 nM) was added for 10 minutes at room temperature. Then 50 μl of H2O2 (final concentration 100 μM), or assay buffer alone as a control, were added for 10 minutes at room temperature. The reaction was stopped by adding 10 μl 0.2 mg/ml of catalase (final concentration 18 μg/ml) for 5 minutes before 100 μl of TMB developing reagent was added (2 mM TMB in 200 mM acetate buffer pH 5.4 containing 20% dimethylformamide (DMF) and 200 μM KI). Plates were mixed and the amount of oxidised 3,3′,5,5′-tetramethylbenzidine formed was then measured after about 5 minutes using absorbance spectroscopy at about […]. IC50 values were then determined using standard procedures.

Molecules are shown by their SMILES.

The term IC50 denotes the concentration that inhibits the measured activity by half. Low readings indicate greater potency in that assay, high ones weaker potency in that assay. As for `CC(C)Cn1c(=S)[nH]c(=O)c2[nH]c(C(F)(F)F)nc21` [Example 1, 3-Isobutyl-2-thioxo-8-trifluoromethyl-1,2,3,7-tetrahydro-purin-6-one], the IC50 is < 60 µM.

For the origin of these results see patent US20070032468A1, “Novel thioxanthine derivatives for use as inhibitors of mpo” (AstraZeneca AB, priority 2003, published 2007).
